This note sets out measurements from patent US20250041389A1, “ENHANCING ABSORPTION OF DIETARY COMPOUNDS TO PROMOTE HEALTH” (ARIZONA BOARD OF REGENTS ON BEHALF OF THE UNIVERSITY OF …, priority 2023, published 2025).

Experiment [1] has as its system rheumatoid arthritis model. The experiment in a line: Joint inflammation in a rheumatoid arthritis model. It counts as in vivo.
The subject of experiment [2] is breast cancer bone metastasis models. The experiment in a line: Osteolysis in breast cancer bone metastasis models. It is filed as in vivo.
Experiment [3] relates to TGF-β signaling in human breast cancer cells. Description: Inhibition of TGF-β signaling in human breast cancer cells. It counts as cell-based.
Another experiment deals with ovariectomized rats. Description: Bone loss in ovariectomized rats (FDA-approved model for testing osteoporosis treatments). It counts as in vivo.

As to shogaols, the joint inflammation result in experiment [1] is “prevent”.

Regarding `COc1cc(/C=C/C(=O)CC(=O)/C=C/c2ccc(O)c(OC)c2)ccc1O` [curcumin], the osteolysis entry in experiment [2] is “mitigate”. Besides, in experiment [1], the joint inflammation entry is listed as “prevent”. In addition, in experiment [3], the TGF-β signaling entry is “inhibit”. Further, in the experiment with ovariectomized rats, the bone loss entry is listed as “prevent” and the bone-resorbing osteoclasts result was “decreasing”.

With gingerols, in experiment [1], the joint inflammation result is on record as “prevent”.
